According to patent publication US20220347144A1, “COMPOSITIONS AND METHODS FOR PREVENTING AND/OR REDUCING WEIGHT GAIN AND ASSOCIATED CONDITIONS” (University of Virginia Patent Foundation, priority 2019, published 2022):

Experiments:
Type in all cases: in vivo, mouse
C57Bl/6J mice [1] = test: Body weight over 12 weeks on the diets
Method: (§1) Animals. Animal experiments were approved by the Animal Care and Use Committee of the University of Virginia (Charlottesville, Va., United States of America). C57Bl/6J mice were obtained from Jackson Laboratories (Bar Harbor, Me., United States of America). Mice were group housed in standard cages with up to five mice per cage with a 12 hour dark/light cycle. All mice were weighed once per week. Weekly food consumption was measured, with the amount consumed per cage averaged amongst the mice in the cage. Body composition was determined by use of an ECHOMRI™-100H Body Composition Analyzer (EchoMRI LLC, Houston, Tex., United States of America).
(§2) Diets. Diets were obtained from Research Diets (New Brunswick, N.J., United States of America). The low fat chow was D12450Ji (10 kcal % fat) and the high fat chow was D12492 (60 kcal % fat). These two chows were reformulated by replacing a portion of dietary fat with an ethyl ester of nervonic acid from Nu-Chek Prep (Elysian, Minn., United States of America) to produce isocaloric diets with nervonic acid at 6 g per kg of diet (0.6%). For the three most prevalent fatty acids in these diets: C16 comprised 14.4%, 11.7%, 18.5%, and 18.1%; C18:1 comprised 27.4%, 22.8%, 32%, and 31.4%; and C18:2 comprised 39.6%, 36.2%, 26.9%, and 26.5% of the fatty acid composition of the Cnt, Cnt+NA, HFD, and HFD+NA diets, respectively. Mice were started on diets at ˜8 weeks of age and given ad libitum access.

C57Bl/6J mice [2] = test: Body composition (EchoMRI)
Method: as §1, §2

C57Bl/6J mice [3] = test: Fecal caloric content by bomb calorimetry
Method: For determination of energy expenditure, respiratory exchange ratios, and activity, mice were placed in an Oxymax metabolic chamber systems (Comprehensive Laboratory Animal Monitoring System, CLAMS, from Columbus Instruments (Columbus, Ohio, United States of America). Oxygen consumption (V02) and carbon dioxide production (VCO2) were determined for each mouse every 18 minutes over 72 hours with ambulatory activity assessed every minute over this same time period. Only the last two complete light and dark cycles (spanning 48 hours) were used for data analysis. Feces was collected from these studies and shipped to the Mouse Metabolic Phenotyping Core at the University of Texas Southwestern for bomb calorimetry analysis using a Parr 6200 Isoperibol Calorimeter (Parr Instrument Company, Moline, Ill., United States of America).

C57Bl/6J mice [4] = test: Fasting and random-fed blood glucose; settings: for fasting blood glucose / random-fed blood glucose: HFD+NA versus HFD, 8 weeks on diets
Method: (§3) Insulin Tolerance Test (ITT) and Glucose Tolerance Test (GTT) and analysis of blood glucose and plasma insulin. ITT and GTT were performed as described in Lansey et al., 2012. Briefly, for ITT, random-fed mice were given an intraperitoneal injection (IP) of insulin (0.75 U/kg in 0.9% NaCl). Blood glucose levels were determined by a glucometer (Contour Next EZ Blood Glucose Monitoring System, Bayer, Leverkusen, Germany) at the indicated time points after injection. For GTT, mice were fasted for 16 hours prior to testing. D-Glucose, prepared the day before, was administered via an IP injection (1 g/kg), and blood glucose levels were determined by a glucometer at the indicated time points after injection. Plasma insulin levels were determined using a STELLUX® brand Chemi Rodent Insulin ELISA kit (Cat. No. 80-INSMR-CHO1; APLCO, Salem, N.H., United States of America) or an Ultrasensitive Rat/Mouse Insulin ELISA kit, Low Range Assay (Cat. No. 90060; Crystal Chem, Downers Grove, Ill., United States of America). The luminescence assay was conducted using a VICTOR2 Plate Reader (Perkin Elmer, Waltham, Mass., United States of America).

C57Bl/6J mice [5] = test: Plasma insulin (fasting and after IP glucose); settings: for fasting (basal) plasma insulin levels: HFD+NA versus HFD; for fasting (basal) plasma insulin levels / fasting plasma insulin levels: 8 weeks; for increase in insulin after intraperitoneal administration of glucose: HFD+NA, 30 min after IP glucose; for fasting plasma insulin levels: control diet with NA
Method: as §3
For assessment of insulin, blood was collected with heparinized capillary tubes and subsequently centrifuged to obtain plasma. Insulin levels was then determined using a STELLUX® Chemi Rodent Insulin ELISA kit (Catalog No. 80-INSMR-CHO1, APLCO, Salem, N.H., United States of America) or an Ultrasensitive Rat/Mouse Insulin ELISA kit low range (Cat. No 90060; Crystal Chem, Downers Grove, Ill., United States of America). The luminescence assay was conducted using a VICTOR2 Plate Reader (Perkin Elmer, Waltham, Mass., United States of America).

C57Bl/6J mice [6] = test: Insulin Tolerance Test (ITT)
Method: as §3

PGC1α = test: Liver transcript analysis by qRT-PCR; settings: HFD+NA
Method: (§4) Transcript analysis. RNA was isolated from mouse liver by manual homogenization in TRIzol reagent (Invitrogen, Carlsbad, Calif., United States of America) following the manufacturer's instructions. Total RNA underwent DNase I treatment (New England Biolabs, Ipswich, Mass., United States of America) and cDNA was made using the ISCRIPT™ brand cDNA Synthesis Kit (Bio-Rad Laboratories, Hercules, Calif., United States of America). Quantitative real-time PCR was carried out using Bio-Rad SYBR® green probes (PPARα Bio-Rad Assay ID qMmuCID0005156; SIRT1 Bio-Rad Assay ID qMmuCID0015511; PGC1α Bio-Rad Assay ID qMmuCID0006032). The TATA binding protein (Bio-Rad Assay ID qMmuCID0040542) gene was used to normalize target gene abundance. Biological samples were run in triplicate.

PPARα = test: Liver transcript analysis by qRT-PCR; settings: HFD+NA
Method: as §4

SIRT1 = test: Liver transcript analysis by qRT-PCR; settings: HFD+NA
Method: as §4

C57Bl/6J mice [7] = test: Observation of overt toxicities in animals fed a NA-enriched diet

(Z)-tetracos-15-enoic acid [NA]
body weight gain (C57Bl/6J mice [1]; HFD+NA versus HFD, 12 weeks): significantly less body weight gain
body weights (C57Bl/6J mice [1]; HFD+NA versus control diet, 12 weeks): not significantly different
body weight gains over time (C57Bl/6J mice [1]; NA-enriched control diet versus control diet): significantly less body weight gains over time
average body fat content (C57Bl/6J mice [2]; HFD+NA fed animals at the time of sacrifice (HFD: 16.44 g/mouse)): 9.48 g/mouse
fat mass (C57Bl/6J mice [2]; HFD+NA versus HFD): reduction in fat mass
lean mass (C57Bl/6J mice [2]; HFD+NA versus HFD): slightly, but significantly, reduced
lean mass (C57Bl/6J mice [2]; HFD+NA versus control or control+NA groups): not significantly different
water mass (C57Bl/6J mice [2]; all experimental groups): similar
lean mass (C57Bl/6J mice [2]; control+NA versus control): not significantly different
fecal caloric content (C57Bl/6J mice [3]; HFD+NA versus HFD): No differences
fecal caloric content (C57Bl/6J mice [3]; control+NA versus control): No differences
fasting blood glucose (C57Bl/6J mice [4]): significant reductions
random-fed blood glucose (C57Bl/6J mice [4]): significant reductions
fasting blood glucose (C57Bl/6J mice [4]; listed as nervonic acid): significant reduction
random-fed blood glucose (C57Bl/6J mice [4]; listed as nervonic acid): significant reduction
blood glucose levels (C57Bl/6J mice [4]; HFD+NA versus control diet, random fed or fasted): not significantly different
blood glucose levels (C57Bl/6J mice [4]; control with NA diet versus control): No significant differences
fasting (basal) plasma insulin levels (C57Bl/6J mice [5]): significantly reduced
fasting (basal) plasma insulin levels (C57Bl/6J mice [5]; listed as nervonic acid): reduced insulin levels
increase in insulin after intraperitoneal administration of glucose (C57Bl/6J mice [5]): no such increase
increase in insulin after intraperitoneal administration of glucose (C57Bl/6J mice [5]; listed as nervonic acid): not observed
fasting plasma insulin levels (C57Bl/6J mice [5]): did not affect insulin levels
fasting plasma insulin levels (C57Bl/6J mice [5]; listed as nervonic acid): did not influence insulin levels
response of blood glucose to insulin injection (C57Bl/6J mice [6]; HFD+NA, 11 weeks on diets): responded similarly to mice on control diets
response of blood glucose to insulin injection (C57Bl/6J mice [6]; HFD+NA, 11 weeks on diets, listed as nervonic acid): responded similarly to mice on the control diet
response of blood glucose to insulin injection (C57Bl/6J mice [6]; control diet containing NA): responded similar to mice on the control diet alone
response of blood glucose to insulin injection (C57Bl/6J mice [6]; control diet containing NA, listed as nervonic acid): responded similar to the control diet
PGC1α mRNA levels in liver (PGC1α): restored
PPARα mRNA levels in liver (PPARα): increased
SIRT1 mRNA levels in liver (SIRT1): restored
overt toxicities (ruffled fur, anorexia, cachexia, skin tenting, skin ulcerations, diarrhea, death) (C57Bl/6J mice [7]): No overt toxicities
